Data: patent publication US9168247B2, “Beta carboline derivatives useful in the treatment of proliferative disorders” (FACULTES UNIVERSITAIRES NOTRE DAME DE LA PAIX, priority 2010, dated 2015)

Assays:
Type in all cases: cell-based, human
U373 cells = experiment: Cellular imaging (videomicroscopy) of cultured U373 cells: antiproliferative class and global growth ratio; parameters: key to Anti proliferative class / anti-proliferative class-GGR: class I: actually cytostatic for 3 days (<10% of cell death at the 3rd day); class II: cyctostatic but becomes cytotoxic with <10% cell death on the 2nd day, and >20% of cell death on the 3rd day; class III: cytostatic but rapidly becomes cytotoxic with <10% cell death on the 1st day, >20% of cell death on the 2nd day and >50% of cell death on the 3rd day; class IV: cytotoxic (>50% of cell death on the first day); conditions: for global growth ratio (GGR): GG treated cells/GG control cells, 72 h after drug addition, drug at its IC50 (MTT-test determined); for anti-proliferative class-GGR: Table 4; for Anti proliferative class: cellular imaging of cultured U373 cells over three consecutive days
In short: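 U373-MG glioma cells seeded at low density, exposed or not to compound […], filmed by videomicroscopy for 72 h, in quadruplicate. Cells counted on first (0 h) and last (72 h) images; GGR = final/initial count, reported as GGR treated/GGR control.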

[1] = system: OE21 oesophageal cancer cells; experiment: MTT test, overall cell growth, OE21
In short: (§1)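 Glioma (Hs683, T98G, U373) and oesophageal (OE21, OE33) lines seeded at 5,000–8,000 cells/well, treated 24 h later with compound at 1×10^−8 to 1×10^−4 M for 72 h at 37 °C, in sestuplicate.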

U373 glioma cells = experiment: MTT test, overall cell growth, U373; conditions: 72 hours of incubation
In short: as §1

Hs683 glioma cells = experiment: MTT test, overall cell growth, Hs683
In short: as §1

[2] = Homo sapiens, OE21, 72 hours of incubation
[3] = Homo sapiens, Hs 683, 72 hours of incubation

IC50 [1, 2] | IC50 (U373 glioma cells; Homo sapiens, U373 MG) | IC50 (Hs683 glioma cells; [3]) | Compound | global growth ratio (GGR) (U373 cells) | anti-proliferative class-GGR (U373 cells) | Anti proliferative class (U373 cells) | IC50 ([1]; 72 hours of incubation) | IC50 (U373 glioma cells) | IC50 (Hs683 glioma cells; 72 hours of incubation)
1.3 ± 0.2 µM | 0.44 ± 0.01 µM | 0.49 ± 0.05 µM | Cc1c2c(cc[n+]1Cc1ccccc1)c1ccc(OCc3ccccc3)cc1n2Cc1ccccc1.[Br-] [CV21/JR95, 1-methyl-2-benzyl-7-benzyloxy-9-benzyl-β-carbolin-2-ium bromide] | 0.4 | (I) (class I: actually cytostatic for 3 days (<10% of cell death at the 3rd day)) | I (class I: actually cytostatic for 3 days (<10% of cell death at the 3rd day)) |  |  | 
28 ± 3 µM | 18 ± 2 µM | 33 ± 1 µM | Cc1nccc2c3ccc(OCc4ccccc4)cc3n(Cc3ccccc3)c12 [CV9/JR84, 1-methyl-7-benzyloxy-9-benzyl-β-carboline] | 0.3 | (II) | II |  |  | 
 |  |  | Cc1nccc2c1[nH]c1cc(OCc3cccnc3)ccc12 [JR212] | 0.3 | (I) (class I: actually cytostatic for 3 days (<10% of cell death at the 3rd day)) | I (class I: actually cytostatic for 3 days (<10% of cell death at the 3rd day)) | 28 ± 2 µM | 24 ± 1 µM | 30 ± 3 µM
 |  |  | COCCOc1ccc2c(c1)[nH]c1c(C)nccc12 [JR220] | 0.2 | (I) (class I: actually cytostatic for 3 days (<10% of cell death at the 3rd day)) | I (class I: actually cytostatic for 3 days (<10% of cell death at the 3rd day)) | 53 ± 4 µM | 64 ± 4 µM | 53 ± 6 µM
